In one experiment the target is T1, GST-hPPARγ2 (Homo sapiens, UniProt P37231).
T1 construct: the complete cDNA of the human PPAR was cloned into pGEX4T2; made in house; host or cells: Escherichia coli BL21 (DE3)
T1 sequence (P37231 1-505): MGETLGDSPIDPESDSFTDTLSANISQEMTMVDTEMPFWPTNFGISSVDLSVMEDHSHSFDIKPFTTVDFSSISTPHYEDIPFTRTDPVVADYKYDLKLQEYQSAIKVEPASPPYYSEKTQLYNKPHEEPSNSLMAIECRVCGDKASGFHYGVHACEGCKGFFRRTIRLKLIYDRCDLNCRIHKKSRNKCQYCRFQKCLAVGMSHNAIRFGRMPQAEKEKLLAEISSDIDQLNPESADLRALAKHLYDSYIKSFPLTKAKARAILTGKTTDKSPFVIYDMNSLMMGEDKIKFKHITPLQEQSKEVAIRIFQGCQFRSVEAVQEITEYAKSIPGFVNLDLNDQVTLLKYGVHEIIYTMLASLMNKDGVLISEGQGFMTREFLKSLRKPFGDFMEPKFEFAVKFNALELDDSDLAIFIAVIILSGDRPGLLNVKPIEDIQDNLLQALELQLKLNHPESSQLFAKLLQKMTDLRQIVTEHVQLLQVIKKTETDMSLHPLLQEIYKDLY
The experiment in a line: PPARγ2 binding assay ([3H]BRL-49853 displacement). The note with it: GST-hPPARγ2, [3H]BRL-49853 100 nM, 3 h at 4° C.; read-out: Affinity PPARγ. As for the experimental part: The cDNA encoding for the open reading frame of the hPPARγ2 was amplified by PCR (polymerase chain reaction) and inserted in the plasmid pGEX-4T-2. This construction (pGEX-hPPARγ) was introduced into E. coli where it was overexpressed and semipurified as a fusion protein with glutathione S-transferase (GST) (Elbrecht et al., J. Biol. Chem. 1999, 274, 7913-7922). The binding of the compounds to the GST-hPPARγ2 s was determined by modifications in the method described by Lehmann et al. (J. Biol. Chem. 1995, 270, 12953-12957). The receptors (2.5 μg) were incubated in 96-well plates in the presence or in the absence of the products with [^3H]BRL-49853 (100 nM) for 3 h at 4° C., in a final volume of 200 μL of buffer Tris-HCl 10 mM pH:8.0, containing KCl 50 mM and DTT 10 mM. Non-specific binding was determined in the presence of BRL49853 100 μM. The reaction mixture was transferred to a Multiscreen Durapore (Millipore) microplate containing glutathione-Sepharose 4B in every well. The reaction mixture was left to incubate with the resin during 10 min, and then centrifuged at 735 g during 2 min. To dissociate the receptor bound to the resin, reduced glutathione 10 mM is added and incubated during 10 min. The receptor was eluted by centrifugation. Then, scintillation liquid was added to the elution and the contained radioactivity was quantified by liquid scintillation spectroscopy (Microbeta Wallac, Perkin Elmer).
The human PPAR cDNA was amplified through RT-PCR. For hPPARγ2, RNA was obtained from human white adipose tissue. Each amplified fragment was cloned into pBluescript (Stratagene®) and sequenced. One clone for each construction was selected and used as template for further subcloning and PCR amplifications.
GST-Fused Protein Construction
To generate this chimeric protein, the complete cDNA of the human PPAR was cloned into pGEX4T2 (Amersham Biosciences). The fragment was obtained from the pBluescript-cDNAs clones digested with endonucleases. To assess the plasmid identity and to ensure the in-phase cloning of the proteins, pGEX construction was sequenced. GST-hPPARγ2 fusion protein was generated in Escherichia coli (BL21 strain DE3). Cells were cultured in LB medium to a density of A600=1.6 odu, and induced for overexpression by addition of isopropyl-1-thio-β-D-galactopyranoside (IPTG)-induced cultures to a final concentration of 0.5 mM. The IPTG-induced cultures were grown at room temperature o/n, before cells were harvested by centrifugation at 5000 g for 15 min. After sonication, the GST-fusion protein was purified from the cell pellet using glutathione-Sepharose beads, following the procedure recommended by the manufacturer (Amersham Pharmacia Biotech). Excess of gluthatione was removed o/n by dyalisis at 4° C. Receptor purity was visualized by SDS-PAGE and protein content was determined by Bradford method. Receptor aliquots were stored at −80° C. until use.

Experiment [1] addresses T2, GAL4 DNA binding domain fused to the PPARγ LBD (Homo sapiens, UniProt P37231).
T2 construct: expressed in transfected cells; host or cells: COS-7
T2 sequence (P37231 238-503 limits assumed): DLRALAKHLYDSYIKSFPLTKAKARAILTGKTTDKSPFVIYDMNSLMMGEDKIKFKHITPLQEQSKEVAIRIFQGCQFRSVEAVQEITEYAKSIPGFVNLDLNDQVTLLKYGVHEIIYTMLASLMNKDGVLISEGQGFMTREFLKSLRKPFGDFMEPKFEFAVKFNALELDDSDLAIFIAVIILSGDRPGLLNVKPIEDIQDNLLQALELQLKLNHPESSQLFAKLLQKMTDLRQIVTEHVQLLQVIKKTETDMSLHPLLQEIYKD
The experiment in a line: LBD-hPPARs transactivation assay (GAL4-luciferase reporter in COS-7 cells). The note with it: 48 h. In kind it is cell-based. The source says: LBD-hPPARs Transactivation Assay
COS-7 cells were cultivated in 24-well plates and transfected with the pFACMV plasmids that encode the chimeric proteins containing the GAL4 DNA binding domain fused to the PPARγ LBD. The reporter plasmid for the foregoing constructions was pFR-Luc, which contains five repetitions of the GAL4-response element in front of a promoter that controls the transcription of the luciferase gene. Lipofectamine was used as a transfection agent. The plasmids of the chimeric receptors and the reporter gene were inserted in the cells by transitory transfection in COS-7 cells in culture.
A general note: A reporter such as luciferase makes a cellular process visible.

The structures appear in SMILES notation.

As to `O=C(c1ccccc1)c1ccccc1N[C@@H](Cc1ccc(OCCCN(CC2CC2)C(=O)C2CCCC2)cc1)C(=O)O` [I_280, (S)-2-(2-Benzoylphenylamino)-3-{4-[3-(cyclopentanecarbonylcyclopropylmethylamino)propoxy]phenyl}propionic acid], the Ki at GST-hPPARγ2 was less than 500 nM.

Turning to `O=C(c1ccccc1)c1ccccc1N[C@@H](Cc1ccc(OCCN(C(=O)c2cc3ccccc3cn2)c2ccccc2)cc1)C(=O)O` [I_303, (S)-2-(2-Benzoylphenylamino)-3-(4-{2-[(isoquinoline-3-carbonyl)-phenylamino]ethoxy}phenyl)propionic acid], the Ki at GST-hPPARγ2 is less than 500 nM.

`Cc1cccc(N(CCCOc2ccc(C[C@H](Nc3ccccc3C(=O)c3ccccc3)C(=O)O)cc2)CC(C)C)c1` [I_410, (S)-2-(2-Benzoylphenylamino)-3-(4-{3-[isobutyl-m-tolylamino]propoxy}-phenyl)propionic acid]: the “Functional activity PPARγ” value in experiment [1] was “ANTAGONIST”. Besides, the Ki at GST-hPPARγ2 is less than 500 nM.

As for `O=C(c1ccccc1)c1ccccc1N[C@@H](Cc1ccc(OCCN(Cc2ccccc2F)c2ccccc2Cl)cc1)C(=O)O` [I_379, (S)-2-(2-Benzoylphenylamino)-3-(4-{2-[(2-chlorophenyl)-(2-fluorobenzyl)-amino]ethoxy}phenyl)propionic acid], the Ki on GST-hPPARγ2 is 500 to 1500 nM.

As for `CC(=O)N(CCOc1ccc(C[C@H](Nc2ccccc2C(=O)c2ccccc2)C(=O)O)cc1)c1ccc2ccccc2c1` [I_438, (S)-3-{4-[2-(Acetylnaphthalen-2-ylamino)ethoxy]phenyl}-2-(2-benzoylphenylamino)propionic acid], the Ki at GST-hPPARγ2 was 500 to 1500 nM.

Consider `Cc1ccccc1N(CCOc1ccc(C[C@H](Nc2ccccc2C(=O)c2ccccc2)C(=O)O)cc1)CC1CCC1` [I_412, (S)-2-(2-Benzoylphenylamino)-3-{4-[2-(cyclobutylmethyl-o-tolylamino)-ethoxy]phenyl}propionic acid], for which the Ki on GST-hPPARγ2 was less than 500 nM.

For the molecule `O=C(c1ccccc1)c1ccccc1N[C@@H](Cc1ccc(OCCN(Cc2cccs2)c2ccccc2)cc1)C(=O)O` [I_467, (S)-2-(2-Benzoylphenylamino)-3-{4-[2-(phenylthiophen-2-ylmethylamino)-ethoxy]phenyl}propionic acid], the Ki at GST-hPPARγ2 was less than 500 nM.

Take `C=CC(=O)N(CCCOc1ccc(C[C@H](Nc2ccccc2C(=O)c2ccccc2)C(=O)O)cc1)c1ccc(Cl)cc1` [I_128, (S)-3-(4-{3-[Acryloyl-(4-chlorophenyl)-amino]propoxy}phenyl)-2-(2-benzoylphenylamino)propionic acid]: the Ki on GST-hPPARγ2 fell in the range of 500 to 1500 nM.

As to `COc1cccc(CN(CCCOc2ccc(C[C@H](Nc3ccccc3C(=O)c3ccccc3)C(=O)O)cc2)c2ccccc2)c1` [I_391, (S)-2-(2-Benzoylphenylamino)-3-(4-{3-[(3-methoxybenzyl)phenylamino]-propoxy}phenyl)propionic acid], at GST-hPPARγ2, the Ki fell in the range of 500 to 1500 nM.

On to `CC(C)(C)N(CCOc1ccc(C[C@H](Nc2ccccc2C(=O)c2ccccc2)C(=O)O)cc1)C(=O)C1CCC1` [I_375, (S)-2-(2-Benzoylphenylamino)-3-{4-[2-(tert-butylcyclobutanecarbonylamino)-ethoxy]phenyl}propionic acid], for which the “Functional activity PPARγ” value in experiment [1] is reported as “PARTIAL AGONIST”. Also, the Ki on GST-hPPARγ2 was less than 500 nM.

For the molecule `O=C(c1ccccc1)c1ccccc1N[C@@H](Cc1ccc(OCCCN(Cc2ccccc2)C(=O)Cc2cccnc2)cc1)C(=O)O` [I_198, (S)-2-(2-Benzoylphenylamino)-3-(4-{3-[benzyl-(2-pyridin-3-ylacetyl)-amino]propoxy}phenyl)propionic acid], in experiment [1], the “Functional activity PPARγ” value is given as “PARTIAL AGONIST”. Also, the Ki at GST-hPPARγ2 is 500 to 1500 nM.

Turning to `Cc1ccc(N(CCOc2ccc(C[C@H](Nc3ccccc3C(=O)c3ccccc3)C(=O)O)cc2)C(=O)C(C)C)cc1` [I_149, (S)-2-(2-Benzoylphenylamino)-3-{4-[2-(isobutyryl-p-tolylamino)ethoxy]-phenyl}propionic acid], the Ki at GST-hPPARγ2 was more than 1500 nM.

As for `O=C(c1ccccc1)c1ccccc1N[C@@H](Cc1ccc(OCCCN(Cc2ccccc2)C(=O)C#Cc2ccccc2)cc1)C(=O)O` [I_178, (S)-2-(2-Benzoylphenylamino)-3-(4-{3-[benzyl-(3-phenylpropynoyl)amino]-propoxy}phenyl)propionic acid], the Ki at GST-hPPARγ2 is less than 500 nM.

Consider `O=C(c1ccccc1)c1ccccc1N[C@@H](Cc1ccc(OCCN(CC2CC2)C(=O)C=Cc2cccs2)cc1)C(=O)O` [I_265, (S)-2-(2-Benzoylphenylamino)-3-(4-{2-[cyclopropylmethyl-(3-thiophen-2-ylacryloyl)amino]ethoxy}phenyl)-propionic acid], for which, in experiment [1], the “Functional activity PPARγ” value is “AGONIST”. Moreover, the Ki at GST-hPPARγ2 was less than 500 nM.

Turning to `O=C(c1ccccc1)c1ccccc1N[C@@H](Cc1ccc(OCCCN(Cc2ccccc2)CC2CC2)cc1)C(=O)O` [I_418, (S)-2-(2-Benzoylphenylamino)-3-{4-[3-(benzylcyclopropylmethylamino)-propoxy]phenyl}propionic acid], the “Functional activity PPARγ” value in experiment [1] is “PARTIAL AGONIST”. On GST-hPPARγ2, the Ki lay within 500 to 1500 nM.

Regarding `CCC(=O)N(CCOc1ccc(C[C@H](Nc2ccccc2C(=O)c2ccccc2)C(=O)O)cc1)c1ccc(Cl)cc1` [I_121], in experiment [1], the “Functional activity PPARγ” value is on record as “ANTAGONIST”. Moreover, on GST-hPPARγ2, the Ki fell in the range of 500 to 1500 nM.

Consider `C/C=C/C(=O)N(CCOc1ccc(C[C@H](Nc2ccccc2C(=O)c2ccccc2)C(=O)O)cc1)c1cccc(SC)c1` [I_440, (S)-2-(2-Benzoylphenylamino)-3-(4-{2-[but-2-(E)-enoyl-(3-methylsulfanylphenyl)amino]ethoxy}-phenyl)propionic acid], for which, on GST-hPPARγ2, the Ki is 500 to 1500 nM.

Turning to `O=C(c1ccccc1)c1ccccc1N[C@@H](Cc1ccc(OCCCN(CC2CC2)C(=O)Cc2ccccc2)cc1)C(=O)O` [I_262, (S)-2-(2-Benzoylphenylamino)-3-{4-[3-(cyclopropylmethylphenylacetylamino)propoxy]phenyl}propionic acid], in experiment [1], the “Functional activity PPARγ” value is on record as “AGONIST”. Further, on GST-hPPARγ2, the Ki is less than 500 nM.

With `COCCC(=O)N(CCOc1ccc(C[C@H](Nc2ccccc2C(=O)c2ccccc2)C(=O)O)cc1)Cc1ccccc1` [I_469, (S)-2-(2-Benzoylphenylamino)-3-(4-{2-[benzyl-(3-methoxypropionyl)-amino]ethoxy}phenyl)propionic acid], the Ki at GST-hPPARγ2 was in the range of 500 to 1500 nM.
